Where two headings read alike, the source gives them in different places.
Legend:
Assay type in all cases: cell-based
HIV-1 WT virus (NL4-3) = experiment: microbe, parasite or virus in culture; details: Human immunodeficiency virus 1, NL43, CEM-SS
Outline: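 CEM-SS cells (5×10^3/well) infected with HIV-1 NL4-3 at MOI giving complete killing by day 6 (e.g., 0.01-0.05), with half-log compound dilutions in triplicate. After six days at 37° C., viability measured by XTT reduction at 450 nm; CIC50 is 50% inhibitory concentration of cytopathic killing.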

HIV-1 NL4-3 (WT) = experiment: Cytopathic cell killing assay, MT-4 cells, isolate NL4-3 (WT)
Description: (§1) The various HIV isolates tested in the Figures are those corresponding to wild-type virus (NL4-3) and the other strains listed by their RT mutations. The three 4×AZT isolates included in the Figures represent AZT drug-resistant variants. For example, the 4×AZT/L100I isolate has five mutations: four mutations confer increased resistance to AZT, and the other mutation is located within the NNRTI binding pocket. TZB and nevir. (nevirapine) are two well-known NNRTIs, included in this experiment for comparison purposes.
(§2) In this Example, the antiviral and cellular toxicity of NNRTIs was investigated, using the cytopathic cell killing assay described by Yang (Yang et al., “Characteristics of a Group of Non-nucleoside Reverse Transcriptase Inhibitors with Structural Diversity and Potent Anti-Human Immunodeficiency Virus Activity,” Leukemia 9:S75-S85 [1995]). Briefly, in this method cells (e.g., the CEM-SS cell line, available from the NIAID AIDS Research and Reference Program [ARRRP]) were seeded at a density of 5×10^3 cells/well, into the wells of a 96-well microtiter plate. The cells were then infected with HIV virus (either mutant or WT), at a multiplicity of infection (MOI) previously determined to provide complete cell killing by 6 days of culture post-infection (e.g., MOI of 0.01-0.05). Each of the HIV isolates was pre-titered to induce equivalent levels of infection based on cell killing or virus production, prior to their use in these assays. A range of test compound concentrations was added to the wells in triplicate (e.g., serial half-log dilutions) to evaluate inhibition of HIV infection. Controls for each assay included drug controls (drug colorimetric control wells), drug cytotoxicity control wells (cells with drug), virus control wells (cells with virus), and cell viability controls (cells only). Positive control drugs (e.g. AZT and ddC) were also run in parallel.
(§3) After six days of incubation at 37° C., cell viability was determined spectrophotometrically at 450 nm for each well, using the metabolic reduction of XTT to a soluble colored formazan. (See, Gartner and Popovic, “Virus Isolation and Production, in Aldovini and Walker (eds.), Techniques in HIV Research, Stockton Press, NY, pp. […] [1991]; and Nara and Fischinger, “Quantitative Infectivity Assay for HIV-1 and HIV-2, ” Nature 332:469-470 [1988]).
(§4) The in vitro therapeutic index (TI50) was defined as the fold-difference between the EC50 and IC50. The results for the various compounds are included in FIGS. 8 and 19.

HIV-1 isolate L74V = experiment: Cytopathic cell killing assay, MT-4 cells, isolate L74V
Description: as §1, §2, §3, §4

HIV-1 isolate A98G = experiment: Cytopathic cell killing assay, MT-4 cells, isolate A98G
Description: as §1, §2, §3, §4

HIV-1 isolate L100I = experiment: Cytopathic cell killing assay, MT-4 cells, isolate L100I
Description: as §1, §2, §3, §4

HIV-1 isolate K103N = experiment: Cytopathic cell killing assay, MT-4 cells, isolate K103N
Description: as §1, §2, §3, §4

HIV-1 isolate V106A = experiment: Cytopathic cell killing assay, MT-4 cells, isolate V106A
Description: as §1
(§5) In this Example, the antiviral and cellular toxicity of NNRTIs was investigated, using the cytopathic cell killing assay described by Yang (Yang et al., “Characteristics of a Group of Non-nucleoside Reverse Transcriptase Inhibitors with Structural Diversity and Potent Anti-Human Immunodeficiency Virus Activity,” Leukemia 9:S75-S85 [1995]). Briefly, in this method cells (e.g., the CEM-SS cell line, available from the NIAID AIDS Research and Reference Program [ARRRP]) were seeded at a density of 5×10^3 cells/well, into the wells of a 96-well microtiter plate. The cells were then infected with HIV virus (either mutant or WT), at a multiplicity of infection (MOI) previously determined to provide complete cell killing by 6 days of culture post-infection (e.g., MOI of 0.01-0.05). Each of the HIV isolates was pre-titered to induce equivalent levels of infection based on cell killing or virus production, prior to their use in these assays. A range of test compound concentrations was added to the wells in triplicate (e.g., serial half-log dilutions) to evaluate inhibition of HIV infection. […]
(§6) After six days of incubation at 37° C., cell viability was determined spectrophotometrically at 450 nm for each well, using the metabolic reduction of XTT to a soluble colored formazan. (See, Gartner and Popovic, “Virus Isolation and Production, in Aldovini and Walker (eds.), Techniques in HIV Research, Stockton Press, NY, pp. […] [1991]; and Nara and Fischinger, “Quantitative Infectivity Assay for HIV-1 and HIV-2, ” Nature 332:469-470 [1988]). […]

HIV-1 isolate V108I = experiment: Cytopathic cell killing assay, MT-4 cells, isolate V108I
Description: as §1, §2, §3, §4

HIV-1 isolate V179D = experiment: Cytopathic cell killing assay, MT-4 cells, isolate V179D
Description: as §1, §2, §3, §4

HIV-1 isolate Y181C = experiment: Cytopathic cell killing assay, MT-4 cells, isolate Y181C
Description: as §1, §2, §3, §4

[1] = test system: HIV-1 isolate 4xAZT (AZT drug-resistant variant); experiment: Cytopathic cell killing assay, MT-4 cells, isolate 4xAZT; details: Human immunodeficiency virus 1, MT4, read-out: EC50, isolate 4XAZT
Description: as §1, §5, §6

[2] = test system: HIV-1 isolate 4xAZT/L100I; experiment: Cytopathic cell killing assay, MT-4 cells, isolate 4xAZT/L100I; details: Human immunodeficiency virus 1, MT4, read-out: EC50, isolate 4XAZT/L1001
Description: The various HIV isolates tested in the Figures are those corresponding to wild-type virus (NL4-3) and the other strains listed by their RT mutations. The three 4×AZT isolates included in the Figures represent AZT drug-resistant variants.
Briefly, in this method cells (e.g., the CEM-SS cell line, available from the NIAID AIDS Research and Reference Program [ARRRP]) were seeded at a density of 5×10^3 cells/well, into the wells of a 96-well microtiter plate. The cells were then infected with HIV virus (either mutant or WT), at a multiplicity of infection (MOI) previously determined to provide complete cell killing by 6 days of culture post-infection (e.g., MOI of 0.01-0.05). Each of the HIV isolates was pre-titered to induce equivalent levels of infection based on cell killing or virus production, prior to their use in these assays. A range of test compound concentrations was added to the wells in triplicate (e.g., serial half-log dilutions) to evaluate inhibition of HIV infection. Controls for each assay included drug controls (drug colorimetric control wells), drug cytotoxicity control wells (cells with drug), virus control wells (cells with virus), and cell viability controls (cells only). Positive control drugs (e.g. AZT and ddC) were also run in parallel.
as §3
The in vitro therapeutic index (TI50) was defined as the fold-difference between the EC50 and IC50.

HIV-1 isolate M184I = experiment: Cytopathic cell killing assay, isolate M184I; details: Human immunodeficiency virus 1, read-out: EC50, isolate M184I
Description: as §1, §5, §6

HIV-1 isolate Y188H = experiment: Cytopathic cell killing assay, isolate Y188H; details: Human immunodeficiency virus 1, read-out: EC50, isolate Y188H
Description: as §1, §2, §3, §4

[3] = Human immunodeficiency virus 1, MT4, read-out: EC50, isolate K103N, Table 8, MT-4 cells
[4] = Human immunodeficiency virus 1, MT4, read-out: EC50, isolate Y181C, Table 8, MT-4 cells

Nc1cccc2c1nc(-c1c(F)cccc1F)n2Cc1c(F)cccc1F [Compound 3300, 4-amino-1-(2,6-difluorobenzyl)-2-(2,6-difluorophenyl)benzimidazole]
EC50 (HIV-1 WT virus (NL4-3); Table 7, drug concentration required to reduce cell killing or virus production by 50%, WT, read-out: EC50): 0.46 µM | EC50 (HIV-1 NL4-3 (WT); Human immunodeficiency virus 1, NL43, MT4, Table 8, MT-4 cells, read-out: EC50, isolate NL4-3): 0.5 µM | EC50 (HIV-1 NL4-3 (WT); Human immunodeficiency virus 1, NL43, MT4, Table 10, values in μM, read-out: EC50, isolate NL4-3 (WT)): 0.68 µM | EC50 (HIV-1 NL4-3 (WT); Table 10, values in μM, listed as NH2, read-out: EC50, isolate NL4-3 (WT)): 0.4 µM | EC50 (HIV-1 isolate L74V; Human immunodeficiency virus 1, MT4, read-out: EC50, isolate L74V, Table 8, MT-4 cells): 0.3 µM | EC50 (HIV-1 isolate A98G; Human immunodeficiency virus 1, MT4, read-out: EC50, isolate A98G, Table 8, MT-4 cells): 1.5 µM | EC50 (HIV-1 isolate L100I; Human immunodeficiency virus 1, MT4, read-out: EC50, isolate L1001, Table 8, MT-4 cells): 1.3 µM | EC50 (HIV-1 isolate K103N; [3]): > 20 µM | EC50 (HIV-1 isolate V106A; Human immunodeficiency virus 1, MT4, read-out: EC50, isolate V106A, Table 8, MT-4 cells): > 20 µM | EC50 (HIV-1 isolate V108I; Human immunodeficiency virus 1, MT4, read-out: EC50, isolate V1081, Table 8, MT-4 cells): > 20 µM | EC50 (HIV-1 isolate V179D; Human immunodeficiency virus 1, MT4, read-out: EC50, isolate V179D, Table 8, MT-4 cells): 0.3 µM | EC50 (HIV-1 isolate Y181C; [4]): 6 µM | EC50 [1]: 0.2 µM | EC50 [2]: 0.3 µM | EC50 (HIV-1 isolate M184I): 0.65 µM | EC50 (HIV-1 isolate Y188H): > 50 µM

CCc1cccc2c1nc(-c1c(F)cccc1F)n2Cc1c(F)cccc1F [Compound 4011, 1-(2,6-difluorobenzyl)-2-(2,6-difluorophenyl)-4-ethylbenzimidazole]
EC50 (HIV-1 WT virus (NL4-3)): 0.82 µM | EC50 (HIV-1 NL4-3 (WT); Human immunodeficiency virus 1, NL43, MT4, read-out: EC50, isolate NL4-3): 1.1 µM | EC50 (HIV-1 NL4-3 (WT); Human immunodeficiency virus 1, NL43, MT4, read-out: EC50, isolate NL4-3 (WT)): 0.9 µM | EC50 (HIV-1 isolate L74V; Human immunodeficiency virus 1, MT4, read-out: EC50, isolate L74V): 1.5 µM | EC50 (HIV-1 isolate A98G; Human immunodeficiency virus 1, MT4, read-out: EC50, isolate A98G): 8 µM | EC50 (HIV-1 isolate L100I; Human immunodeficiency virus 1, MT4, read-out: EC50, isolate L100I): 2.48 µM | EC50 (HIV-1 isolate L100I; Human immunodeficiency virus 1, MT4, read-out: EC50, isolate L1001): 0.6 µM | EC50 (HIV-1 isolate K103N; [3]): > 20 µM | EC50 (HIV-1 isolate K103N; Human immunodeficiency virus 1, MT4, read-out: EC50, isolate K103N, Table 10, values in μM): > 50 µM | EC50 (HIV-1 isolate V106A; Human immunodeficiency virus 1, MT4, read-out: EC50, isolate V106A): > 20 µM | EC50 (HIV-1 isolate V108I; Human immunodeficiency virus 1, MT4, read-out: EC50, isolate V108I): > 50 µM | EC50 (HIV-1 isolate V108I; Human immunodeficiency virus 1, MT4, read-out: EC50, isolate V1081): 3 µM | EC50 (HIV-1 isolate V179D; Human immunodeficiency virus 1, MT4, read-out: EC50, isolate V179D): 1.8 µM | EC50 (HIV-1 isolate Y181C; [4]): > 10 µM | EC50 (HIV-1 isolate Y181C; Human immunodeficiency virus 1, MT4, read-out: EC50, isolate Y181C, Table 10, values in μM): 7.18 µM | EC50 [1]: 3 µM | EC50 [2]: 0.6 µM | EC50 (HIV-1 isolate M184I): 0.96 µM | EC50 (HIV-1 isolate Y188H): 13.2 µM

From patent US6894068B2, “Substituted benzimidazoles as non-nucleoside inhibitors of reverse transcriptase” (The United States of America as represented by the …, priority 1997, dated 2005)
